Assays:
Assay type in all cases: functional
Mus musculus [1] = species: Mus musculus; assay: In vitro inhibitory activity against TNF-alpha production in mouse macrophages stimulated with LPS
Mus musculus [2] = assay: Protection against LPS-induced death of D-galactosamine-sensitized mice (10 in number) at specified dose of 50 mg/kg on day 7
Mus musculus [3] = assay: Protection against LPS-induced death of D-galactosamine-sensitized mice (10 in number) at specified dose of 0 mg/kg on day 7
Mus musculus [4] = assay: Protection against LPS-induced death of D-galactosamine-sensitized mice (10 in number) at specified dose of 100 mg/kg on day 7

Compound | IC50 (Mus musculus [1]) | Survival rate (Mus musculus [2]) | Survival rate (Mus musculus [3]) | Survival rate (Mus musculus [4])
c1c2c(cc3c1OCO3)C1Cc3cc4c(cc3C(C2)N1)OCO4 | 15 µM | 7 number of mice | 0 number of mice | 10 number of mice
COc1cc2c(cc1OC)C1Cc3cc4c(cc3C(C2)N1)OCO4 (stereo not drawn) | 100 µM | – | – | –
CCOC(=O)CC(=O)N1C2Cc3cc4c(cc3C1Cc1cc3c(cc12)OCO3)OCO4 | 26 µM | 2 number of mice | 0 number of mice | 3 number of mice
O=C(CO)N1C2Cc3cc4c(cc3C1Cc1cc3c(cc12)OCO3)OCO4 | 20 µM | 6 number of mice | 0 number of mice | 9 number of mice
O=C(CCO)N1C2Cc3cc4c(cc3C1Cc1cc3c(cc12)OCO3)OCO4 | 27 µM | 5 number of mice | 0 number of mice | 6 number of mice
CNC(=O)N1C2Cc3cc4c(cc3C1Cc1cc3c(cc12)OCO3)OCO4 | 15 µM | 6 number of mice | 0 number of mice | 6 number of mice
COCC(=O)N1C2Cc3cc4c(cc3C1Cc1cc3c(cc12)OCO3)OCO4 | 17 µM | – | – | –
CCC(=O)N1C2Cc3cc4c(cc3C1Cc1cc3c(cc12)OCO3)OCO4 | 11 µM | 8 number of mice | 0 number of mice | 8 number of mice
O=C(c1ccccc1)N1C2Cc3cc4c(cc3C1Cc1cc3c(cc12)OCO3)OCO4 | 38 µM | – | – | –
Oc1cc2c(cc1O)C1Cc3cc4c(cc3C(C2)N1)OCO4 (stereo not drawn) | 44 µM | – | – | –
CN1C2Cc3cc4c(cc3C1Cc1cc3c(cc12)OCO3)OCO4 | 19 µM | – | – | –
COc1cc2c(cc1OC)C1Cc3cc(OC)c(OC)cc3C(C2)N1C(C)=O | 38 µM | – | – | –
CC(=O)N1C2Cc3cc4c(cc3C1Cc1cc(O)c(O)cc12)OCO4 (stereo not drawn) | 46 µM | – | – | –
COc1cc2c(cc1OC)C1Cc3cc4c(cc3C(C2)N1C(C)=O)OCO4 (stereo not drawn) | 22 µM | – | – | –
CCCN1C2Cc3cc4c(cc3C1Cc1cc3c(cc12)OCO3)OCO4 | 56 µM | – | – | –
OCCN1C2Cc3cc4c(cc3C1Cc1cc3c(cc12)OCO3)OCO4 | 36 µM | 7 number of mice | 0 number of mice | 9 number of mice
c1c2c(cc3c1OCCO3)C1Cc3cc4c(cc3C(C2)N1)OCCO4 | 22 µM | 1 number of mice | 0 number of mice | 4 number of mice

Compound | IC50 (Mus musculus [1]) | Survival rate (Mus musculus [2]) | Survival rate (Mus musculus [3]) | Survival rate (Mus musculus [4])
CCN1C2Cc3cc4c(cc3C1Cc1cc3c(cc12)OCO3)OCO4 | 27 µM | 9 number of mice | 0 number of mice | 10 number of mice
NCCN1C2Cc3cc4c(cc3C1Cc1cc3c(cc12)OCO3)OCO4 | 14 µM | 8 number of mice | 0 number of mice | 8 number of mice
Oc1cc2c(cc1O)C1Cc3cc(O)c(O)cc3C(C2)N1 | > 100 µM | – | – | –
CCCC(=O)N1C2Cc3cc4c(cc3C1Cc1cc3c(cc12)OCO3)OCO4 | 11 µM | 4 number of mice | 0 number of mice | 5 number of mice
CC(=O)N1C2Cc3cc(O)c(O)cc3C1Cc1cc(O)c(O)cc12 | > 100 µM | – | – | –
CCCCCC(=O)N1C2Cc3cc4c(cc3C1Cc1cc3c(cc12)OCO3)OCO4 | > 100 µM | – | – | –
CCOC(=O)N1C2Cc3cc4c(cc3C1Cc1cc3c(cc12)OCO3)OCO4 | 31 µM | 3 number of mice | 0 number of mice | 3 number of mice
CC(=O)Oc1cc2c(cc1OC(C)=O)C1Cc3cc(OC(C)=O)c(OC(C)=O)cc3C(C2)N1C(C)=O | > 100 µM | – | – | –
COc1cc2c(cc1OC)C1Cc3cc(OC)c(OC)cc3C(C2)N1 | > 100 µM | – | – | –
CCCCN1C2Cc3cc4c(cc3C1Cc1cc3c(cc12)OCO3)OCO4 | 58 µM | – | – | –
CC(=O)CCCCn1c(=O)c2c(ncn2C)n(C)c1=O [PENTOXIFYLLINE] | 68 µM | – | 0 number of mice | 4 number of mice
NCCCN1C2Cc3cc4c(cc3C1Cc1cc3c(cc12)OCO3)OCO4 | 52 µM | – | – | –
O=CN1C2Cc3cc4c(cc3C1Cc1cc3c(cc12)OCO3)OCO4 | 22 µM | 7 number of mice | 0 number of mice | 7 number of mice
CC(=O)N1C2Cc3cc4c(cc3C1Cc1cc3c(cc12)OCCO3)OCCO4 | 34 µM | 4 number of mice | 0 number of mice | 7 number of mice
CCOC(=O)C(=O)N1C2Cc3cc4c(cc3C1Cc1cc3c(cc12)OCO3)OCO4 | 15 µM | 3 number of mice | 0 number of mice | 2 number of mice
CC(=O)N1C2Cc3cc4c(cc3C1Cc1cc3c(cc12)OCO3)OCO4 | 13 µM | 7 number of mice | 0 number of mice | 9 number of mice

Source: ChEMBL document CHEMBL1151099, “Synthesis of new TNF- Inhibitors and their biological properties” (Bioorg Med Chem Lett, 1996)
